From US20150018411A1, “COMPOUNDS AS PPAR BETA/DELTA INHIBITORS FOR TREATING PPAR BETA/DELTA-MEDIATED DISEASES” (PHILIPPS-UNIVERSITAT MARBURG, priority 2011, published 2015)
Entries after “also recorded” stand apart in the source; their conditions may differ.

Tests used:
GST-PPAR beta/delta LBD = biological target: T1, GST-PPAR beta/delta LBD (Homo sapiens, UniProt Q03181); assay: Competitive in vitro ligand binding, TR-FRET, displacement of Fluormone Pan-PPAR-Green; conditions: fluorescence ratio 520 nm/495 nm
T1 construct: GST-PPAR beta/delta LBD (GST=glutathione S-transferase); purchased Invitrogen, Darmstadt, Germany
T1 sequence (Q03181 211-439 limits assumed): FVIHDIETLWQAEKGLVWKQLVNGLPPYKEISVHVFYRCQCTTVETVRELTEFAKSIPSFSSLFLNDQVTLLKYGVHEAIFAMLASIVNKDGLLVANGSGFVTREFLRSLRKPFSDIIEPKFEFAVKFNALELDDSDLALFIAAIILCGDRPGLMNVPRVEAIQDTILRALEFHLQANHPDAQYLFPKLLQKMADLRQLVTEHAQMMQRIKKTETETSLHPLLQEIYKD
Protocol: FIG. 1: Competitive in vitro ligand binding to PPAR beta/delta. • The displacement of ligand Fluormone® Pan-PPAR Green from recombinant GST-PPAR beta/delta ligand binding domain (LBD) by the substances of the present invention comparative compound (CC) 2, compound 1 (A), compound 2 (B), and compound 3 (C), compound 4 (D), compound 5 (E) is determined by TR-FRET analysis. Shown is the ratio of fluorescence intensity at 520 nm (fluorescein emission, excited by terbium emission) and 495 nm (terbium emission). All data points represent average values of triplicates (+/−standard deviation).
A) Competitive ligand-binding of the substances of this invention was measured in vitro using time-resolved fluorescence resonance energy transfer (TR-FRET) by competition with the commercially available fluorescent Fluormone® Pan-PPAR-Green for binding to the fusion protein GST-PPAR beta/delta LBD (GST=glutathione S-transferase; LBD=ligand binding domain) (Invitrogen, Darmstadt, Germany) in a VICTOR3V Multilabel Counter (WALLAC 1420; PerkinElmer Life and Analytical Sciences, Rodgau, Germany). The measurement was performed in 100 mM KC, 20 mM Tris pH 7.9, 0.01% Triton X100 and 1 μg/μL bovine serum albumin. GST is known to the expert in the field as suitable fusion partner for proteins. For this purpose, the ratio of fluorescence intensities at 520 nm (fluorescein emission excited by terbium emission) and at 495 nm (terbium emission) is determined.

PPAR beta/delta = biological target: T2, PPAR beta/delta (Homo sapiens, UniProt Q03181); assay: Agonist-induced transcriptional activity, luciferase reporter in WPMY-1 cells; assay type: cell-based; conditions: human WPMY-1 myofibroblasts, 500 nM substance, 500 nM agonist L165041
T2 construct: expressed in transfected cells; host or cells: WPMY-1 human myofibroblasts, transient transfection with PEI
T2 sequence (Q03181 1-441): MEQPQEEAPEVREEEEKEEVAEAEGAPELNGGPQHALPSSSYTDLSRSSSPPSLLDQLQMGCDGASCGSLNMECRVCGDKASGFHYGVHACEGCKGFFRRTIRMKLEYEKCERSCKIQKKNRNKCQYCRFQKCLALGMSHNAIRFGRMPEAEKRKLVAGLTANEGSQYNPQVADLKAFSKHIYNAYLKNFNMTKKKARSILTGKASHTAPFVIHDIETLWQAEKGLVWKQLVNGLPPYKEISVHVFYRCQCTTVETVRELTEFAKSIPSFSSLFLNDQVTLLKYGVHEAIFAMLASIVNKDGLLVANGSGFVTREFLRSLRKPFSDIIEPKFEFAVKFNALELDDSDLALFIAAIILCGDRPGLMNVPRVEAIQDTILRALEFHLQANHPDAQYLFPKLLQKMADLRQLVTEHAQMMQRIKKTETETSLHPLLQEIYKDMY
Protocol: FIG. 4: Effect of the substances of this invention comparative compound (CC) 2, compound 1, compound 5, compound 2 and compound 3 on the agonist-induced transcriptional activity of PPAR subtypes alpha (A), beta/delta (B) and gamma (C). • WPMY-1 cells are transiently transfected with a luciferase reporter plasmid. Four hours after transfection, cells are treated for 48 hours with the respective antagonist (500 nM), followed by a treatment with 300 nM of PPAR alpha agonist GW7647 (A), 500 nM of PPAR beta/delta agonist L165041 (B) or 300 nM of PPAR gamma agonist GW1929 (C). The relative induction is represented by the luciferase activity of the agonist-treated transfected cells in relation to solvent-treated transfected cells. Asterisks (**, *) indicate significant differences to untreated cells (after t-test; **: p<0.01; *: p<0.05). GW7647 is commercially available from Sigma-Aldrich (Steinheim, Germany). L165041 and GW1929 can be obtained from Biozol (Eching, Germany).
D) The influence of substances of this invention on the agonist-induced transcriptional activity of PPAR subtypes alpha, beta/delta or gamma is determined in WPMY-1 myofibroblasts transfected transiently with a luciferase reporter plasmid (LexA system) using polyethyleneimine (PEI) according to a method known to the expert. As agonists, substances GW7647 for PPAR alpha or L165041 for PPAR beta/delta or GW1929 for PPAR gamma known to the expert are used. WPMY-1 myofibroblast cells are initially cultured for example in a 12-well plate in DMEM medium (DMEM: Dulbecco's Modified Eagle Medium) according to a method known to the expert and to a confluence of 70% to 80%, and subsequently transfected with 2.5 μg of plasmid-DNA containing the luciferase reporter plasmid, expression plasmids for the respective PPAR subtypes and the Renilla-luciferase plasmid pRL-SV40 (Promega, Mannheim, Germany), and 2.5 μl PEI (1:1000 dilution, pH 7). Four hours after transfection, the cells are treated for 48 hours with 500 nM of the substances of this invention, and 24 later with 300 nM (GW7647 or GW1929, respectively) or 500 nM (L165041) of the respective agonist at 37° C. and 5% CO2 in an incubator. The luciferase assay is performed 48 hours after the first treatment according to the commercial method of the “dual-well-system” (pjk GmbH, Kleinblittersdorf, Germany), whereby for a normalization, not only the luciferase-, but also the Renilla activity is measured. Cells are initially lysed for this measurement, and 20 μl of the lysate is transferred into a white 96-well plate (Fisher Scientific, Hamburg, Germany). […] Mean values and standard deviation are calculated from values of three independent measurements.

CCCCCCNc1ccc(NS(=O)(=O)c2ccsc2C(=O)OC)c(OC)c1 [compound 1, methyl 3-(N-(4-(hexylamino)-2-methoxyphenyl)sulfamoyl)thiophene-2-carboxylate]
competition with Fluormone Pan-PPAR-Green for binding to GST-PPAR beta/delta LBD (GST-PPAR beta/delta LBD): significant competition efficacy; also recorded: significant competition efficiency | agonist-induced transcriptional activity of PPAR beta/delta (luciferase induction) (PPAR beta/delta): inhibited in a PPAR subtype-specific manner

CCCCCCNc1ccc(NS(=O)(=O)c2ccsc2C(=O)OC)cc1OC [compound 2, methyl 3-(N-(4-(hexylamino)-3-methoxyphenyl)sulfamoyl)thiophene-2-carboxylate]
competition with Fluormone Pan-PPAR-Green for binding to GST-PPAR beta/delta LBD (GST-PPAR beta/delta LBD): significant competition efficacy; also recorded: significant competition efficiency | agonist-induced transcriptional activity of PPAR beta/delta (luciferase induction) (PPAR beta/delta): inhibited in a PPAR subtype-specific manner

COC(=O)c1sccc1S(=O)(=O)Nc1ccc(NC(C)(C)C)cc1OC [compound 5, methyl 3-(N-(4-(tert-butylamino)-2-methoxyphenyl)sulfamoyl)thiophene-2-carboxylate]
competition with Fluormone Pan-PPAR-Green for binding to GST-PPAR beta/delta LBD (GST-PPAR beta/delta LBD): significant competition efficacy; also recorded: significant competition efficiency | agonist-induced transcriptional activity of PPAR beta/delta (luciferase induction) (PPAR beta/delta): inhibited in a PPAR subtype-specific manner
